Experiment: Water solubility
Format: physicochemical

For `CC(=O)C(C)CCC(=O)O` (stereo not shown) [ERG240], the water solubility was “water-soluble”.
